Assay results published in patent US7482308B2, “Difluoromethanesulfonyl anilide derivatives useful as herbicides” (Bayer CropScience AG, priority 2004, dated 2009).

Columns and labels:
Assay type in all cases: in vivo
[1] = test system: sulfonylurea resistant Lindernia procumbens Philcox (collected in Kazo area, Saitama Pref.); test: Test for herbicidal effect against sulfonylurea resistant weeds (Test Example 3); conditions: applied at beginning of emergence, examined 3 weeks after treatment
From the text: (§1) In a green house seeds of Scirpus juncoides Roxburgh (collected in Iwamizawa area, Hokkaido), Lindernia procumbens Philcox (collected in Kazo area, Saitama Pref.), Lindernia procumbens Philcox (collected in Higashi-Hiroshima area, Hiroshima Pref.), Elatine triandra Schk (collected in Kazo area, Saitama Pref.), all of which were confirmed as sulfonylurea resistant, were inoculated in a 20 cm^2 cup filled with paddy field soil. Then water was poured to a depth of about 2 to 3 cm. At the beginning of emergence of each weed, a prescribed, diluted solution of the formulation of each active compound prepared in the same manner as the above-mentioned Test Example 1 was applied to the surface of water. After the treatment the water depth of 3 cm was maintained and the herbicidal effect was examined after 3 weeks from the treatment. The evaluation of the herbicidal effect was conducted in the same manner as the above-mentioned Test Example 1. In case of showing higher than 80% herbicidal effect, it is evaluated as practical as herbicide. In consideration of the possibility that the biological properties including herbicide resistance of the plants grown in different areas might be different, sulfonylurea resistant Lindernia procumbens Philcox collected in two different areas were used in the present tests. The study results with the compounds No. 1, 3, 11 and 17 and the comparative compound No. C-1 as specific examples are shown in the following Table 6.

[2] = test system: sulfonylurea resistant Scirpus juncoides Roxburgh (collected in Iwamizawa area, Hokkaido); test: as above; conditions: applied at beginning of emergence, examined 3 weeks after treatment
From the text: as §1

[3] = test system: Cyperus difformis L.; test: Herbicidal effect against paddy field weeds, spray at two leaf-stage of rice (Test Example 5); conditions: 50 g ai/ha, evaluated 3 weeks after treatment
From the text: (§2) In a greenhouse seeds of Scirpus juncoides Roxburgh, Monochoria vaginalis Presi, Cyperus difformis L., annual broad-leaved weeds (Lindernia procumbens Philcox, Rotala indica Koehne, Elatine triandra Schk, Ammannia multiflora Roxb.) and rice (var.: Nipponbare and RD-23) were inoculated in a 500 cm^2 pot filled with paddy field soil. Then water was poured to a depth of about 0 to about 0.5 cm, to be a wet condition. At two leaf-stage of rice, a prescribed, diluted solution of the formulation of each active compound, prepared in the same manner as the above-mentioned Test Example 1, was sprayed over the pots with plants. At 2 days after the treatment, the water depth of 3 cm was maintained and the herbicidal effect and rice injury was evaluated at 3 weeks and 2 weeks after the treatment, respectively.
(§3) The herbicidal effect and rice injury were rated 100% in the case of complete death and as 0% in the case of no effect or injury. In case of showing higher than 80% herbicidal effect and less than 20% injury, it is evaluated as practical as rice herbicide.

[4] = test system: annual broad-leaved weeds; test: as above; conditions: 50 g ai/ha, evaluated 3 weeks after treatment
From the text: as §2, §3

[5] = test system: Monochoria vaginalis Presi; test: as above; conditions: 50 g ai/ha, evaluated 3 weeks after treatment
From the text: as §2, §3

[6] = test system: Scirpus juncoides Roxburgh; test: as above; conditions: 50 g ai/ha, evaluated 3 weeks after treatment
From the text: as §2, §3

[7] = test system: direct-seedling rice var. RD-23; test: Test for phytotoxicity to direct-seedling rice (Test Example 5); conditions: 50 g ai/ha; spray at two leaf-stage of rice; evaluated 2 weeks after treatment
From the text: as §2, §3

[8] = test system: direct-seedling rice var. Nipponbare; test: as above; conditions: 50 g ai/ha; spray at two leaf-stage of rice; evaluated 2 weeks after treatment
From the text: as §2, §3

[9] = test system: annual broad-leaved weeds; test: Test for herbicidal effect against paddy field weeds (Test Example 1); conditions: 30 g ai/ha, examined 3 weeks after treatment
Procedure: (§4) Preparation of Formulation of the Active Compound
(§5) • Carrier: DMF 5 parts by weight • Emulsifier: Benzyloxy polyglycol ether 1 part by weight
(§6) A formulation of an active compound is obtained as an emulsifiable concentrate by mixing 1 part by weight of the active compound with the above-mentioned amount of the carrier and emulsifier. A prescribed amount of the formulation is diluted with water.
(§7) In a green house seeds or tubers of Scirpus juncoides Roxburgh, Monochoria vaginalis Presi, annual broad-leaved weeds (Lindemia procumbens Philcox, Rotala indica Koehne, Elatine triandra Schk, Ammannia multiflora Roxb., etc.), Cyperus serotinus Rottboel were inoculated in a 500 cm^2 pot filled with paddy field soil. Then water was poured to a depth of about 2-3 cm. Five days and 13 days after inoculation, a prescribed, diluted solution of the formulation of each active compound, prepared according to the aforementioned preparation method, was applied to the surface of water. After the treatment the water depth of 3 cm was maintained and the herbicidal effect was examined after 3 weeks from the treatment.
(§8) The herbicidal effect was rated 100% in the case of complete death and as 0% in the case of no herbicidal effect. In case of showing higher than 80% herbicidal effect, it is evaluated as practical as herbicide.

[10] = test system: Cyperus serotinus Rottboel; test: as above; conditions: 30 g ai/ha, examined 3 weeks after treatment
Procedure: as §4, §5, §6, §7, §8

[11] = test system: Monochoria vaginalis Presi; test: as above; conditions: 30 g ai/ha, examined 3 weeks after treatment
Procedure: as §4, §5, §6, §7, §8

[12] = test system: Scirpus juncoides Roxburgh; test: as above; conditions: 30 g ai/ha, examined 3 weeks after treatment
Procedure: as §4, §5, §6, §7, §8

[13] = application 5 days after inoculation
[14] = application 13 days after inoculation

Compound: COc1cc(OC)nc(C(O)c2cccc(Cl)c2NS(=O)(=O)C(F)F)n1 (stereo not drawn) [Compound 3, 2-chloro-6-[(4,6-dimethoxypyrimidin-2-yl)hydroxymethyl]-N-difluoromethanesulfonanilide]
- herbicidal effect against sulfonylurea resistant weeds Lindernia procumbens (collected in Kazo area, Saitama Pref.) ([1]; 30 g ai/ha): 100%
- herbicidal effect against sulfonylurea resistant weeds Lindernia procumbens (collected in Kazo area, Saitama Pref.) ([1]; 60 g ai/ha): 100%
- herbicidal effect against sulfonylurea resistant weeds Scirpus juncoides (collected in Iwamizawa area, Hokkaido) ([2]; 30 g ai/ha): 100%
- herbicidal effect against sulfonylurea resistant weeds Scirpus juncoides (collected in Iwamizawa area, Hokkaido) ([2]; 60 g ai/ha): 100%
- herbicidal effect Cyperus difformis L. [3]: 100%
- herbicidal effect broad-leaved weeds [4]: 100%
- herbicidal effect Monochoria vaginalis [5]: 100%
- herbicidal effect Scirpus juncoides [6]: 100%
- Phytotoxicity to direct-seedling rice RD-23 [7]: 10%
- Phytotoxicity to direct-seedling rice Nipponbare [8]: 20%
- herbicidal effect broad-leaved weeds [9, 13]: 100%
- herbicidal effect broad-leaved weeds [9, 14]: 100%
- herbicidal effect Cyperus serotinus [10, 13]: 100%
- herbicidal effect Cyperus serotinus [10, 14]: 100%
- herbicidal effect Monochoria vaginalis [11, 13]: 100%
- herbicidal effect Monochoria vaginalis [11, 14]: 100%
- herbicidal effect Scirpus juncoides [12, 13]: 100%
- herbicidal effect Scirpus juncoides [12, 14]: 100%

Compound: COc1cc(OC)nc(C(=O)c2cccc(F)c2NS(=O)(=O)C(F)F)n1 [Compound 17, 2-fluoro-6-[(4,6-dimethoxypyrimidin-2-yl)carbonyl]-N-difluoromethanesulfonanilide]
- herbicidal effect against sulfonylurea resistant weeds Lindernia procumbens (collected in Kazo area, Saitama Pref.) ([1]; 30 g ai/ha): 95%
- herbicidal effect against sulfonylurea resistant weeds Lindernia procumbens (collected in Kazo area, Saitama Pref.) ([1]; 60 g ai/ha): 100%
- herbicidal effect against sulfonylurea resistant weeds Scirpus juncoides (collected in Iwamizawa area, Hokkaido) ([2]; 30 g ai/ha): 100%
- herbicidal effect against sulfonylurea resistant weeds Scirpus juncoides (collected in Iwamizawa area, Hokkaido) ([2]; 60 g ai/ha): 100%
- herbicidal effect broad-leaved weeds [9, 13]: 100%
- herbicidal effect broad-leaved weeds [9, 14]: 100%
- herbicidal effect Cyperus serotinus [10, 13]: 100%
- herbicidal effect Cyperus serotinus [10, 14]: 100%
- herbicidal effect Monochoria vaginalis [11, 13]: 100%
- herbicidal effect Monochoria vaginalis [11, 14]: 100%
- herbicidal effect Scirpus juncoides [12, 13]: 100%
- herbicidal effect Scirpus juncoides [12, 14]: 100%
